Data published in PubChem BioAssay AID493130 (Broad Institute, 2011).
Results filed as inconclusive are left out. Calls of active or inactive are those of the source.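 The calls were made as follows: active = signal-lowering compounds whose fitted half-maximal concentration is at most ten times their highest tested dose; inconclusive = flat fit between -30 and -70%, or poor fit; inactive = flat within 30%, signal rising, or potency beyond limit.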

What follows are compounds tested against POS-1 (Caenorhabditis elegans) binding to mex-3 RNA (assay: inhibitors of POS-1/mex-3 RNA binding, dose response, counter-screen for MEX-5 RNA-binding inhibitor project, biochemical, fluorescence polarization, cherry-picked samples, set 2 (AID 493130;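 also: POS-1 as maltose binding protein fusion made in E. coli with FITC RNA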)). Details: POS-1/mex-3 RNA fluorescence polarization, 1 h.

For `CCCCCCc1cc2cc(C(=O)NC)c(=N)oc2cc1O`, which AC50 is on record?
Its AC50 is 1.62 µM.

For `O=C1c2ccccc2C(=O)N1/N=C/c1ccc(O)c(O)c1O`, which AC50 is on record?
Its AC50 is 2.31 µM.

How did the AC50 turn out when `COCCCNC(=O)c1ccc2c3c(onc13)-c1ccccc1C2=O` was run?
Its AC50 is 0.186 µM.

Which AC50 does the source give for `C#CCN1C(=O)S/C(=C\c2cc3c(cc2OC)OCO3)C1=O` here?
The AC50 was 8.97 µM.

`CN(C)[C@@H]1C(=O)C(C(N)=O)=C(O)[C@@]2(O)C(=O)C3=C(O)c4c(O)cccc4[C@@](C)(O)[C@H]3[C@H](O)[C@@H]12` was tested. Which AC50 did it give?
Its AC50 is 4.07 µM.

For `Cc1ccc(N2C(=O)NC(=O)/C(=C\c3ccc([N+](=O)[O-])o3)C2=O)cc1`, which AC50 is on record?
The AC50 was 7.36 µM.

`CC1CC(=O)c2c(cc3c(-c4c(O)cc(O)c5c(O)c6c(cc45)OC(C)CC6=O)c(O)cc(O)c3c2O)O1` (stereo not given) was tested. Which AC50 did it give?
The AC50 was 8.29 µM.

For `COc1ccc(NC(=O)c2cccc(-c3ccc(O)cc3)c2)cn1`, which AC50 is on record?
The AC50 was 3.93 µM.

With `Nc1c(C(=O)c2cccs2)sc2nsc(SCCN3CCCCC3)c12` as the compound, how does the AC50 read?
The AC50 was 6.39 µM.

`COc1ccc(/C(O)=C/c2nc3ccccc3n(-c3ccccc3)c2=O)cc1` was tested. Which AC50 did it give?
The AC50 was 3.23 µM.

Same assay, conditions: POS-1/mex-3 RNA fluorescence polarization, 1 h; at 10 µM (top of the series)

Which “activity change, negative = inhibition” value does the source give for `O=C(O)CSc1ncnc2nc[nH]c12` here?
The value was “inactive”.

`COc1ccc(N(CCC#N)C(=O)/C(C#N)=C/c2cccs2)cc1` was tested. Which “activity change, negative = inhibition” value did it give?
The value was “inactive”.

`COc1cc2c(cc1OC)[C@@H](Cc1ccc(OCCC#N)cc1)N(C)CC2` was tested. Which “activity change, negative = inhibition” value did it give?
Its value is “inactive”.

Which “activity change, negative = inhibition” value does the source give for `CCOc1ccc(/C=C/C(=O)c2ccccc2)cc1` here?
The value was “inactive”.

Which “activity change, negative = inhibition” value does the source give for `Nc1nonc1C(=O)N/N=C/c1cc(Br)ccc1O` here?
Its value is “inactive”.

With `CCN(CC)c1ccc(N=Cc2c(O)n(-c3ccccc3C)c(=O)[nH]c2=O)cc1` as the compound, how does the “activity change, negative = inhibition” value read?
The value was “inactive”.

Which “activity change, negative = inhibition” value does the source give for `CCOC(=O)NNc1ccc2nonc2c1[N+](=O)[O-]` here?
Its value is “inactive”.

Which “activity change, negative = inhibition” value does the source give for `COc1cc(C=C2C(=O)c3ccccc3C2=O)cc(OC)c1OC` here?
The value was “inactive”.

`CCOc1ccccc1C1NC(=O)NC(C)=C1C(=O)OCc1ccccc1` (stereo not given) was tested. Which “activity change, negative = inhibition” value did it give?
Its value is “inactive”.

How did the “activity change, negative = inhibition” value turn out when `CCCCC1=CC2=C(c3ccco3)C(=O)C(C)(OC(=O)c3ccc(OC)cc3)C(=O)C2=CN1C(CO)CO` (stereo not given) was run?
Its value is “inactive”.

How did the “activity change, negative = inhibition” value turn out when `Cc1cc(/C=C2\C(=O)NC(=O)N(Cc3ccccc3)C2=O)c(C)n1-c1ccc(Cl)c(C(=O)O)c1` was run?
The value was “inactive”.

With `CSCC(C)N1CCC(n2nccc2NC(=O)CCc2ccccc2)CC1` (stereo not given) as the compound, how does the “activity change, negative = inhibition” value read?
The value was “inactive”.

With `COc1ccc(N(CCC#N)C(=O)/C(C#N)=C\c2cccs2)cc1` as the compound, how does the “activity change, negative = inhibition” value read?
The value was “inactive”.

How did the “activity change, negative = inhibition” value turn out when `CC(C)N1CCc2c(sc(NC(=O)c3ccc(S(=O)(=O)N4CCCCC4C)cc3)c2C(N)=O)C1` (stereo not given) was run?
The value was “inactive”.

Which “activity change, negative = inhibition” value does the source give for `COC(=O)c1ccc(-c2ccc(C(c3c(C)[nH][nH]c3=O)c3c(C)[nH][nH]c3=O)o2)cc1` here?
The value was “inactive”.

With `Cc1nnc(N2C(=O)C(O)=C(C(=O)c3ccco3)C2c2ccc(C(C)C)cc2)s1` (stereo not given) as the compound, how does the “activity change, negative = inhibition” value read?
The value was “inactive”.

`O=C(NNC(=O)c1ccc(O)c(Cl)c1)c1cccc(S(=O)(=O)N2CCOCC2)c1` was tested. Which “activity change, negative = inhibition” value did it give?
Its value is “inactive”.

With `CCc1ccc(S(=O)(=O)Nc2ccc(O)c3c(=O)cc(-c4ccccc4Cl)oc23)cc1` as the compound, how does the “activity change, negative = inhibition” value read?
The value was “inactive”.

For `COCCNC(=S)NNC(=O)c1cccs1`, which “activity change, negative = inhibition” value is on record?
Its value is “inactive”.

With `O=C(NC1CCSc2ccccc21)c1ccc([N+](=O)[O-])cc1` (stereo not given) as the compound, how does the “activity change, negative = inhibition” value read?
The value was “inactive”.

Which “activity change, negative = inhibition” value does the source give for `COc1c(OC2OC(C(=O)O)C(O)C(O)C2O)cc(O)c2c(=O)cc(-c3ccccc3)oc12` (stereo not given) here?
The value was “inactive”.

Which “activity change, negative = inhibition” value does the source give for `Nc1c(NCc2ccccc2)c(=O)[nH]c(=O)n1Cc1ccccc1` here?
The value was “inactive”.

Which “activity change, negative = inhibition” value does the source give for `Cc1ccc(O)c(-c2cc(C(=O)Nc3ccc(S(=O)(=O)Nc4nc(C)cc(C)n4)cc3)[nH]n2)c1` here?
Its value is “inactive”.

With `NC1=C([N+](=O)[O-])C(c2ccc3c(c2)OCO3)C2=C(CCCC2=O)O1` (stereo not given) as the compound, how does the “activity change, negative = inhibition” value read?
The value was “inactive”.

With `COc1cccc(NC(=O)CSc2nc3ccccc3nc2N2CCOCC2)c1` as the compound, how does the “activity change, negative = inhibition” value read?
Its value is “inactive”.

With `O=C(N/N=C/c1oc(O)c2ccccc12)c1ccccc1O` as the compound, how does the “activity change, negative = inhibition” value read?
The value was “inactive”.

Which “activity change, negative = inhibition” value does the source give for `Nc1c(C(=O)Nc2ccccc2)sc2nc3c(c(-c4ccco4)c12)CCC3` here?
The value was “inactive”.

`Cc1nc2c3ccccc3nc(NNC(=O)CCC(=O)NC(C)C)n2n1` was tested. Which “activity change, negative = inhibition” value did it give?
Its value is “inactive”.

For `Cc1ccccc1S(=O)(=O)NNC(=O)C(=O)NNc1ccccn1`, which “activity change, negative = inhibition” value is on record?
The value was “inactive”.

For `O=C(NNC(=O)c1ccc([N+](=O)[O-])o1)c1ccccc1`, which “activity change, negative = inhibition” value is on record?
Its value is “inactive”.

Which “activity change, negative = inhibition” value does the source give for `COc1ccc(-c2csc(Nc3ccc(S(N)(=O)=O)cc3)n2)cc1OC` here?
Its value is “inactive”.

With `Cn1c(O)c(C2=c3ccccc3=NC2=O)[nH]c1=S` as the compound, how does the “activity change, negative = inhibition” value read?
The value was “inactive”.

For `COc1cc(C(=O)NC(=S)NNC(=O)c2cnccn2)cc(OC)c1OC`, which “activity change, negative = inhibition” value is on record?
The value was “inactive”.

How did the “activity change, negative = inhibition” value turn out when `CC1(N2CCOCC2)CC2(O)C(=[N+]1[O-])CCc1c2no[n+]1[O-]` (stereo not given) was run?
The value was “inactive”.

With `COc1ccc(-n2c(C)nc3cc(C(=O)O)ccc32)cc1` as the compound, how does the “activity change, negative = inhibition” value read?
The value was “inactive”.

Which “activity change, negative = inhibition” value does the source give for `O=C(CSc1nnc(COc2ccccc2)o1)Nc1nccs1` here?
Its value is “inactive”.

How did the “activity change, negative = inhibition” value turn out when `O=C(NC1CCSc2ccccc21)c1ccccc1Br` (stereo not given) was run?
The value was “inactive”.

How did the “activity change, negative = inhibition” value turn out when `CC1=NN(C(N)=S)C(=O)C1N=Nc1ccccc1C` (stereo not given) was run?
Its value is “inactive”.

For `Brc1ccc(-c2cn3nc4c(nc3n2)CCCC4)cc1`, which “activity change, negative = inhibition” value is on record?
The value was “inactive”.

`O=C1SC(SCc2ccccc2Cl)=N/C1=C\c1ccc(C(=O)O)cc1` was tested. Which “activity change, negative = inhibition” value did it give?
Its value is “inactive”.

`O=[As](O)(O)c1ccc(N=Nc2ccc(O)cc2)cc1` was tested. Which “activity change, negative = inhibition” value did it give?
Its value is “inactive”.

For `COc1ccc(NC(=O)c2sc3nc(Cc4ccccc4)cc(C(F)(F)F)c3c2N)cc1OC`, which “activity change, negative = inhibition” value is on record?
The value was “inactive”.

With `C[n+]1c2ccccc2nc2ccc(NCCO)cc21` as the compound, how does the “activity change, negative = inhibition” value read?
Its value is “inactive”.

How did the “activity change, negative = inhibition” value turn out when `CC1=NN(C(N)=S)C(=O)C1N=Nc1cccc(Cl)c1C` (stereo not given) was run?
The value was “inactive”.

How did the “activity change, negative = inhibition” value turn out when `COC(=O)C1=C(C)OC(N)=C(C#N)C1c1cc(OC)c(OCC(N)=O)cc1Cl` (stereo not given) was run?
The value was “inactive”.

Which “activity change, negative = inhibition” value does the source give for `NC1=NC(=O)/C(=C\c2ccc(O)c([N+](=O)[O-])c2)S1` here?
Its value is “inactive”.

For `COc1cccc(CNC23CC4CC(CC(C4)C2)C3)c1OCc1ccccc1`, which “activity change, negative = inhibition” value is on record?
Its value is “inactive”.

With `CN(CC(=O)Nc1cccc(F)c1)C(=O)/C=C/c1cn(Cc2ccccc2)nc1-c1cccnc1` as the compound, how does the “activity change, negative = inhibition” value read?
The value was “inactive”.

For `O=[N+]([O-])c1ccc(/C=N/n2c(CO)nc3ccccc32)s1`, which “activity change, negative = inhibition” value is on record?
Its value is “inactive”.

With `FC(F)(F)c1ccc(Cl)c(-n2c(-c3cc(-c4ccco4)[nH]n3)n[nH]c2=S)c1` as the compound, how does the “activity change, negative = inhibition” value read?
Its value is “inactive”.

How did the “activity change, negative = inhibition” value turn out when `Cn1c(O)c(/C=N/NC(=O)c2cc3ccccc3cc2O)c2ccccc21` was run?
The value was “inactive”.

`C#CCOCCOCCOCCNc1nc(N2CCN(C(=O)[C@H]([C@@H](C)CC)n3cc([C@@H](N)CO)nn3)CC2)nc(N2CCN(C(=O)[C@H]([C@@H](C)CC)n3cc([C@@H](N)CO)nn3)CC2)n1` was tested. Which “activity change, negative = inhibition” value did it give?
The value was “inactive”.

How did the “activity change, negative = inhibition” value turn out when `COc1cccc(NCc2cc(=O)oc3cc(C)c(C(C)C)cc23)c1` was run?
The value was “inactive”.

For `CCN1CCN(Cc2c(C(=O)N/N=C(\C)c3ccc(Cl)c(Cl)c3)nnn2-c2nonc2N)CC1`, which “activity change, negative = inhibition” value is on record?
The value was “inactive”.

Which “activity change, negative = inhibition” value does the source give for `CN(C)S(=O)(=O)c1ccc(Cl)c(C(=O)Nc2cccc3ncccc23)c1` here?
The value was “inactive”.
